Measurements as given in patent US12071624B2, “Antisense oligonucleotide targeting ARL4C molecule, and nucleic acid drug using antisense oligonucleotide” (OSAKA UNIVERSITY, priority 2018, dated 2024).

Columns and labels:
[1] = test system: HLE cells; test: Cell proliferation assay (CyQUANT NF) in HLE cells; type: cell-based; settings: HLE cells transfected with siRNA at 20 nM
Experimental: HLE cells, HCT116 cells, and A549 cells were transfected with 25 to 50 nM ASO and 10 to 20 nM siRNA using Lipofectamine 3000 (Invitrogen, Carlsbad, CA, USA) or RNAiMAX (Invitrogen). Transfected cells were used in the experiments 36 to 48 hours after the end of the transfection.
The cell proliferation assays were performed using the CyQUANT NF Cell Proliferation Assay Kits (Thermo Fisher Scientific), in the way recommended by the manufacturer.
HLE cells were transfected with control ASO, ASO-1316 and ASO-3223 at 25 nM and a proliferation assay was performed; the results of the assay are shown in (e) of FIG. 4.
(§1) HLE cells were transfected with control siRNA and PIK3CD siRNA (siRNA against PIK3CD) at 20 nM, and a proliferation assay was performed; the results are shown in (e) of FIG. 5. In addition, an anti-phosphorylated AKT antibody and an anti-AKT antibody as probes were caused to act on cell lysates of HLE cells transfected with control siRNA and PIK3CD siRNA; the results are shown in FIG. 5 (f). HLE cells were transfected with control siRNA and PIK3CD siRNA (siRNA against PIK3CD) at 20 nM and the PIK3CD mRNA amount was measured by real-time PCR; the results are shown in (c) of FIG. 7.

[2] = test system: AKT; test: Anti-phosphorylated AKT / anti-AKT probing of HLE cell lysates; type: cell-based; settings: HLE cells transfected with PIK3CD siRNA
Source text: Anti-ARL4C and anti-PIK3CD antibodies were purchased from Abcam (Cambridge, UK) and Santa Cruz Biotechnology (Santa Cruz, CA, USA), respectively. Anti-phosphorylated AKT (S473) antibody, anti-AKT antibody, anti-Ki-67 antibody, and anti-YAP/TAZ were purchased from Cell Signaling Technology (Beverly, MA, USA). PD184161 (MEK1/2 inhibitor) and VivoGlo luciferin were purchased from Sigma-Aldrich (Steinheim, Germany) and Promega (Madison, WI, USA), respectively.
as §1

## PIK3CD siRNA: siRNA against PIK3CD, Table 3, SEQ ID NO: 102 and 103 (chain 1 GCGAATACTCTGCCATTAT; chain 2 GCCAACTAACTCTGCAGAT; two separate siRNAs, only sense strands listed, further chemistry not given here) [reference compound]
[1]
  cell proliferation: suppressed cell proliferation
[2]
  AKT activity (pAKT S473): reduced AKT activity
